For assay [1], the target named is T1, AhR (Homo sapiens, UniProt P35869).
T1 sequence (P35869 11-848): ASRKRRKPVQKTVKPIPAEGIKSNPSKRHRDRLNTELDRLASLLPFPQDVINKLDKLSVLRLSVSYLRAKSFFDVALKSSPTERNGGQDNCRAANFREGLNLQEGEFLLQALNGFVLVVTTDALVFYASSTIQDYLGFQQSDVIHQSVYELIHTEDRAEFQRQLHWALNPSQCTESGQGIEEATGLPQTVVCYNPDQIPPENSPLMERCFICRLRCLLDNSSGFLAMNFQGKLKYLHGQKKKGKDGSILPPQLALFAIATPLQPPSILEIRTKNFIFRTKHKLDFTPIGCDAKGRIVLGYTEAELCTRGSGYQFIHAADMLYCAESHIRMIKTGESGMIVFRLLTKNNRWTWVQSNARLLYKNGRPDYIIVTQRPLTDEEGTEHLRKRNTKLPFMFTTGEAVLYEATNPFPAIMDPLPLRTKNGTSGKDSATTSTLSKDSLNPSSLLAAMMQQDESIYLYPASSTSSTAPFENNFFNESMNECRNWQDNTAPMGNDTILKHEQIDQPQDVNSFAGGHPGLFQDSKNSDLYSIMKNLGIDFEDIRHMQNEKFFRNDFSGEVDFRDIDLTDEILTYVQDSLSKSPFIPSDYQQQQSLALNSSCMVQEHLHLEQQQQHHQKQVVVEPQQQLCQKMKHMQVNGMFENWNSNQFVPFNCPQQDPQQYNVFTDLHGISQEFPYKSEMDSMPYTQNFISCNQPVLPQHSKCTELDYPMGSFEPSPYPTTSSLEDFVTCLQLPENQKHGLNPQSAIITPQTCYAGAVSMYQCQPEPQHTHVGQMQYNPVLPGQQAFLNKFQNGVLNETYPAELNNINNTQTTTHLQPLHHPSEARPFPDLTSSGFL
The assay can be described thus: AhR-dependent genes in vitro in cell lines (data not shown). Format: cell-based. As to conditions: preliminary. Details: host or cells: unnamed cell lines. The protocol: Specifically, the oxidated form of 3-IAld (indole-3-formic acid), and methylated forms of indole-3-formic acid, were detected following administration of labelled 3-IAld. For example, 1-Methylindole-3-carboxylic acid was detected with the same kinetics of indole-3-formic acid, with peak levels at 30 min (FIGS. 13C and 13D). Few studies have been performed assessing the biological activities of methylindoles and methoxyindoles as aryl hydrocarbon receptor (AhR) activators.

Assay [2] concerns DSS+anti-CTLA-4-induced colitis. The assay can be described thus: DSS+anti-CTLA-4-induced colitis in 8-10 wk-old Il10−/− mice. Format: in vivo. Here is the method:
Il10^−/− Mice received DSS (1%) in their drinking water and 100 μg anti-CTLA-4 monoclonal antibody intraperitoneally at days 0, 4 and 8 following the DSS administration. 3-IAld-Eudragit was given (18 mg/kg 3-IAld) intragastrically every other day throughout the experiment, starting 2 days before treatment. Animals were monitored daily for body weight and inflammatory pathology in the colon until 14 days after DSS administration.

Assay [3] relates to colitis, gastrointestinal and vaginal candidiasis. As to conditions: mouse, in vivo; cited from earlier work.
The test system of assay [4] is AhR. The note with it: cited from earlier work.
The mark [5] stands for this setting: 3-IAld-Eudragit 18 mg/kg, DSS 1%.

Where two headings read alike, the source gives them in different places.

With `Cn1cc(C(=O)O)c2ccccc21` [1-methylindole-3-carboxylic acid, 1-Methyl-1H-indole-3-carboxylic acid], the “activation of AhR-dependent genes” value on AhR [1] is reported as “activated AhR-dependent genes in a dose-dependent manner”.

For the compound `O=Cc1c[nH]c2ccccc12` [3-IAld, 1H-indole-3-carbaldehyde], the “DSS+anti-CTLA-4-induced colitis (overall)” value in assay [2] (3-IAld) is recorded as “protects”. Further, the “loss of body weight” value in assay [2] (3-IAld-Eudragit 18 mg/kg intragastrically every other day, DSS 1%) is on record as “prevented”. In addition, in assay [2] (setting [5]), the disease activity index entry is recorded as “decreased” and the “inflammatory pathology (colon)” value is listed as “decreased”. Also, in assay [3], the “barrier integrity and production of antimicrobial peptides” value is “enhanced”. In the assay on AhR [4] (as printed in b215), the “dose range inducing luciferase activity” value was 0.1 to 100 mM. In the assay with AhR [4] (as printed in b238), the “dose range inducing luciferase activity” value is 0.0001 to 0.1 mM.

Source of the values: patent publication US20250090498A1, “TREATMENT OF PRIMARY CTLA-4 CHECKPOINT RELATED IMMUNODEFICIENCIES” (ADIENNE PHARMA & BIOTECH SA, priority 2023, published 2025).
